Measurements from PubChem BioAssay (NCI).
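A five-concentration, 48-hour dose response in 96-well plates underlies each endpoint, interpolated linearly between surrounding concentrations. At the TGI there is no net growth.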

Assays:
Assay in all cases: NCI-60 cell line screen, 48 h
[1] = system: KM12 colon
[2] = system: PC-3 prostate
[3] = system: HCT-116 colon
[4] = system: SW-620 colon
[5] = system: MALME-3M melanoma
[6] = system: DU-145 prostate
[7] = system: HT29 colon
[8] = system: SK-MEL-5 melanoma
[9] = system: SK-OV-3 ovarian
[10] = system: HCC-2998 colon
[11] = system: HS 578T breast
[12] = system: COLO 205 colon
[13] = system: NCI/ADR-RES ovarian
[14] = system: T-47D breast
[15] = system: OVCAR-8 ovarian
[16] = system: M14 melanoma
[17] = system: EKVX NSCLC
[18] = system: NCI-H226 lung
[19] = system: MDA-MB-231 breast
[20] = system: RXF 393 renal
[21] = system: NCI-H522 lung
[22] = system: SF-539 CNS
[23] = system: IGROV1 ovarian
[24] = system: NCI-H23 lung
[25] = system: UACC-62 melanoma
[26] = system: BT-549 breast
[27] = system: SF-295 CNS
[28] = system: UO-31 renal
[29] = system: OVCAR-5 ovarian
[30] = system: SK-MEL-28 melanoma
[31] = system: NCI-H460 lung
[32] = system: SNB-19 CNS
[33] = system: HL-60(TB) leukemia
[34] = system: K-562 leukemia
[35] = system: HOP-92 NSCLC
[36] = system: HCT-15 colon
[37] = system: MOLT-4 leukemia
[38] = system: U251 CNS
[39] = system: UACC-257 melanoma
[40] = system: SNB-75 CNS
[41] = system: OVCAR-3 ovarian
[42] = system: LOX IMVI melanoma
[43] = system: CCRF-CEM leukemia
[44] = system: OVCAR-4 ovarian
[45] = system: HOP-62 NSCLC
[46] = system: SR leukemia
[47] = system: SF-268 CNS
[48] = system: MDA-MB-435
[49] = system: MCF7 breast
[50] = system: TK-10 renal
[51] = system: CAKI-1 renal
[52] = system: A549 NSCLC
[53] = system: MDA-N
[54] = system: 786-0 renal
[55] = system: SK-MEL-2 melanoma
[56] = system: SN12C renal
[57] = system: A498 renal
[58] = system: RPMI-8226 leukemia
[59] = system: ACHN renal

CC(C)C(Br)CC/C(CBr)=C(\Cl)CCl (stereo unspecified)
TGI [1]: 17.9 µM | TGI [2]: 16.3 µM | TGI [3]: 5.11 µM | TGI [4]: 3.94 µM | TGI [5]: 15.2 µM | TGI [6]: 25.2 µM | TGI [7]: 4.09 µM | TGI [8]: 3.8 µM | TGI [9]: 11.3 µM | TGI [10]: 26.3 µM | TGI [11]: 15.4 µM | TGI [12]: 8.53 µM | TGI [13]: 16.2 µM | TGI [14]: 3.43 µM | TGI [15]: 9.82 µM | TGI [16]: 3.82 µM | TGI [17]: 31.9 µM | TGI [18]: 6.97 µM | TGI [19]: 7.71 µM | TGI [20]: 3.66 µM | TGI [21]: 2.02 µM | TGI [22]: 11.4 µM | TGI [23]: 3.64 µM | TGI [24]: 12.3 µM | TGI [25]: 7.71 µM | TGI [26]: 3.27 µM | TGI [27]: 28.7 µM | TGI [28]: 15.8 µM | TGI [29]: 23.3 µM | TGI [30]: 10.1 µM | TGI [31]: 30.6 µM | TGI [32]: 31.1 µM | TGI [33]: 3.86 µM | TGI [34]: 3.03 µM | TGI [35]: 6.84 µM | TGI [36]: 4.82 µM | TGI [37]: 2.36 µM | TGI [38]: 17.5 µM | TGI [39]: 9.52 µM | TGI [40]: 13.4 µM | TGI [41]: 8.21 µM | TGI [42]: 1.08 µM | TGI [43]: 0.995 µM | TGI [44]: 6.48 µM | TGI [45]: 30.3 µM | TGI [46]: 3.71 µM | TGI [47]: 27.9 µM | TGI [48]: 5.16 µM | TGI [49]: 19.3 µM | TGI [50]: 20.1 µM | TGI [51]: 9.89 µM | TGI [52]: 33.3 µM | TGI [53]: 3.81 µM | TGI [54]: 3.49 µM | TGI [55]: 4.35 µM | TGI [56]: 8.5 µM | TGI [57]: 35 µM | TGI [58]: 4.49 µM | TGI [59]: 28.2 µM

O=C(O)C(Cc1c[nH]c2ccccc12)C(=O)NO (stereo unspecified)
TGI [1]: > 100 µM | TGI [2]: > 100 µM | TGI [3]: > 100 µM | TGI [4]: > 100 µM | TGI [5]: > 100 µM | TGI [6]: > 100 µM | TGI [7]: > 100 µM | TGI [8]: > 100 µM | TGI [9]: > 100 µM | TGI [10]: > 100 µM | TGI [11]: > 100 µM | TGI [12]: > 100 µM | TGI [13]: > 100 µM | TGI [14]: > 100 µM | TGI [15]: > 100 µM | TGI [16]: > 100 µM | TGI [17]: > 100 µM | TGI [18]: > 100 µM | TGI [19]: > 100 µM | TGI [20]: > 100 µM | TGI [21]: > 100 µM | TGI [22]: > 100 µM | TGI [23]: > 100 µM | TGI [24]: > 100 µM | TGI [25]: > 100 µM | TGI [26]: > 100 µM | TGI [27]: > 100 µM | TGI [28]: > 100 µM | TGI [29]: > 100 µM | TGI [30]: > 100 µM | TGI [31]: > 100 µM | TGI [32]: > 100 µM | TGI [33]: > 100 µM | TGI [34]: > 100 µM | TGI [35]: > 100 µM | TGI [36]: > 100 µM | TGI [37]: > 100 µM | TGI [38]: > 100 µM | TGI [39]: > 100 µM | TGI [40]: > 100 µM | TGI [41]: > 100 µM | TGI [42]: > 100 µM | TGI [43]: > 100 µM | TGI [44]: > 100 µM | TGI [45]: > 100 µM | TGI [46]: > 100 µM | TGI [47]: > 100 µM | TGI [48]: > 100 µM | TGI [49]: > 100 µM | TGI [50]: > 100 µM | TGI [51]: > 100 µM | TGI [52]: > 100 µM | TGI [53]: > 100 µM | TGI [54]: > 100 µM | TGI [55]: > 100 µM | TGI [56]: > 100 µM | TGI [57]: > 100 µM | TGI [58]: > 100 µM | TGI [59]: > 100 µM

c1ccc2cc(CN3CCC(C4CCN(Cc5ccc6ccccc6c5)CC4)CC3)ccc2c1
TGI [1]: 7.99 µM | TGI [2]: 22.9 µM | TGI [3]: 18.4 µM | TGI [4]: 15.6 µM | TGI [5]: 3.71 µM | TGI [6]: 38.2 µM | TGI [7]: 6.42 µM | TGI [8]: 3.38 µM | TGI [9]: 22.4 µM | TGI [10]: 3.13 µM | TGI [11]: 6.6 µM | TGI [12]: 3.96 µM | TGI [13]: 22.1 µM | TGI [14]: > 22.8 µM | TGI [15]: 17.9 µM | TGI [16]: 3.71 µM | TGI [17]: 29.6 µM | TGI [18]: 33.1 µM | TGI [19]: 22.1 µM | TGI [20]: 8.51 µM | TGI [21]: 4.28 µM | TGI [22]: 4.15 µM | TGI [23]: 22.5 µM | TGI [24]: 26.9 µM | TGI [25]: 3.91 µM | TGI [26]: 27.4 µM | TGI [27]: 3.74 µM | TGI [28]: 3.03 µM | TGI [29]: 24.9 µM | TGI [30]: 3.93 µM | TGI [31]: 11 µM | TGI [32]: 27.2 µM | TGI [33]: 4.45 µM | TGI [34]: > 100 µM | TGI [35]: 12.2 µM | TGI [36]: 15.1 µM | TGI [37]: 33.3 µM | TGI [38]: 8.49 µM | TGI [39]: 3.68 µM | TGI [40]: 6.8 µM | TGI [41]: 11.1 µM | TGI [42]: 13.2 µM | TGI [43]: > 43.4 µM | TGI [44]: 21.7 µM | TGI [45]: 7.84 µM | TGI [46]: 15.6 µM | TGI [47]: 25.8 µM | TGI [48]: 3.09 µM | TGI [49]: 8.66 µM | TGI [50]: 13.1 µM | TGI [51]: 15 µM | TGI [52]: 17.1 µM | TGI [53]: 3.91 µM | TGI [54]: 11.1 µM | TGI [55]: 4.87 µM | TGI [56]: 44.5 µM | TGI [57]: 26.2 µM | TGI [58]: 7.44 µM | TGI [59]: 17 µM

COc1ccc(C(=O)/C=C2\C(=O)Nc3ccc(Br)cc32)cc1
TGI [1]: 9.16 µM | TGI [2]: 23.1 µM | TGI [3]: 8.7 µM | TGI [4]: 7.83 µM | TGI [5]: 34.6 µM | TGI [6]: 19.9 µM | TGI [7]: 3.28 µM | TGI [8]: > 50.4 µM | TGI [9]: 29.6 µM | TGI [10]: 12.3 µM | TGI [11]: 50.3 µM | TGI [12]: 4.56 µM | TGI [13]: 3.95 µM | TGI [14]: 26.3 µM | TGI [15]: 4.7 µM | TGI [16]: > 48.3 µM | TGI [17]: 29.1 µM | TGI [18]: 28.6 µM | TGI [19]: 15.5 µM | TGI [20]: 5.08 µM | TGI [21]: 13.4 µM | TGI [22]: 25.7 µM | TGI [23]: 11.4 µM | TGI [24]: 16.2 µM | TGI [25]: 29 µM | TGI [26]: 13.8 µM | TGI [27]: 30.6 µM | TGI [28]: 5.05 µM | TGI [29]: 46.1 µM | TGI [30]: 29 µM | TGI [31]: 26.7 µM | TGI [32]: 36.2 µM | TGI [33]: 6.37 µM | TGI [34]: > 100 µM | TGI [35]: 8.39 µM | TGI [36]: 4.86 µM | TGI [37]: > 21.9 µM | TGI [38]: 34.2 µM | TGI [39]: 25.9 µM | TGI [40]: 27.8 µM | TGI [41]: 11.2 µM | TGI [42]: 4.27 µM | TGI [43]: 32.2 µM | TGI [44]: 32.1 µM | TGI [45]: 37.9 µM | TGI [46]: > 21.2 µM | TGI [47]: 47.4 µM | TGI [48]: 27.8 µM | TGI [49]: 21.1 µM | TGI [50]: 3.32 µM | TGI [51]: 21.4 µM | TGI [52]: > 51.2 µM | TGI [53]: 16.7 µM | TGI [54]: 3.74 µM | TGI [55]: 37.4 µM | TGI [56]: 6.62 µM | TGI [57]: 33.7 µM | TGI [58]: > 23.8 µM | TGI [59]: 3.4 µM
